Assay results: PubChem BioAssay (NCI)
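Tested at 5 concentrations; 48 h exposure; 96-well plates; endpoints linearly interpolated, else capped at highest concentration. Here, GI50 denotes the concentration required for 50% inhibition of growth. TGI marks complete inhibition of growth.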

Experiments:
Test in all cases: inhibition of tumour cell growth, NCI panel, 48 h
[1] = tested on: K-562 leukemia
[2] = tested on: HCT-116 colon
[3] = tested on: SW-620 colon
[4] = tested on: HL-60(TB) leukemia
[5] = tested on: OVCAR-3 ovarian
[6] = tested on: M14 melanoma
[7] = tested on: RXF 393 renal
[8] = tested on: DU-145 prostate
[9] = tested on: OVCAR-5 ovarian
[10] = tested on: MDA-MB-435

| Compound | GI50 [1] | TGI [1] | GI50 [2] | TGI [2] | GI50 [3] | TGI [3] | GI50 [4] | TGI [4] | GI50 [5] | TGI [5] | GI50 [6] | TGI [6] | GI50 [7] | TGI [7] | GI50 [8] | TGI [8] | GI50 [9] | TGI [9] | GI50 [10] | TGI [10] |
| --- | --- | --- | --- | --- | --- | --- | --- | --- | --- | --- | --- | --- | --- | --- | --- | --- | --- | --- | --- | --- |
| CCOC(=O)c1cc2c(n1Cc1ccccc1)-c1oncc1CC2 | 2.48 µM | > 100 µM | 3.45 µM | 13.7 µM | 3.48 µM | > 100 µM | 2.4 µM | 6.59 µM | 3.06 µM | 10.5 µM | 3.69 µM | 24.6 µM | 6.88 µM | 30.9 µM | 11.4 µM | 44 µM | 16.2 µM | > 100 µM | 0.878 µM | 4.37 µM |
| COc1ccc(Cn2cc3c(c2-c2cc(OC)c(OC)c(OC)c2)CCc2cnoc2-3)cc1[N+](=O)[O-] | 0.358 µM | > 100 µM | 0.587 µM | > 100 µM | 0.482 µM | > 100 µM | 0.412 µM | 7.98 µM | 0.441 µM | 3.09 µM | 0.662 µM | > 20.4 µM | 1.02 µM | 6.22 µM | 1.91 µM | > 21.3 µM | 5.08 µM | > 100 µM | 0.219 µM | 0.612 µM |
| CSc1ccc(/C=C/c2ccnc3ccccc23)cc1 |  | 30.9 µM |  | 22.3 µM |  | 27 µM |  | 24.4 µM |  | 25.9 µM |  | 22.1 µM |  | 33 µM |  | 32.7 µM |  | 35 µM |  | 12.5 µM |
